Measurements: patent US7268146B2, “Ring fused pyrazole derivatives as CRF antagonists” (Palo Alto LLC, priority 2001, dated 2007)
Structures can show the parent of a compound that is named as a salt.

Question: With `CCCC(c1cccs1)c1c2c(nn1C)N(c1c(C)cc(C)cc1C)CCC2` (stereo not shown) [Example 7c, 2-Methyl-3-(1-thiophen-2-ylbutyl)-7-(2,4,6-trimethylphenyl)-4,5,6,7-tetrahydro-2H-pyrazolo[3,4-b]pyridine] as the molecule, how does the melting point read?
Answer: 87.6 to 90.3 °C

Question: For `CCCN(CCC)c1c2c(nn1C)N(c1c(C)cc(C)cc1Cl)CCC2` [Example 9a, [7-(2-Chloro-4,6-dimethylphenyl)-2-methyl-4,5,6,7-tetrahydro-2H-pyrazolo[3,4-b]pyridin-3-yl]dipropylamine], which melting point is on record?
Answer: 90 to 91 °C

Question: With `CCC(=O)Nc1c2c(nn1C)N(c1c(C)cc(C)cc1C)CCC2` [Example 10c, N-[2-Methyl-7-(2,4,6-trimethylphenyl)-4,5,6,7-tetrahydro-2H-pyrazolo[3,4-b]pyridin-3-yl]propionamide] as the molecule, how does the melting point read?
Answer: 226 to 228 °C

Question: Which melting point does the source give for `Cc1cc(C)c(N2CCCc3c2nn(C)c3C(=O)O)c(Cl)c1` [Example 8a, 7-(2-Chloro-4,6-dimethylphenyl)-2-methyl-4,5,6,7-tetrahydro-2H-pyrazolo[3,4-b]pyridine-3-carboxylic acid] here?
Answer: 247.8 to 248.3 °C

Question: Which melting point does the source give for `CCCC(O)(c1nccs1)c1c2c(nn1C)N(c1c(C)cc(C)cc1C)CCC2` (stereo not shown) [Example 5h, 1-[2-Methyl-7-(2,4,6-trimethylphenyl)-4,5,6,7-tetrahydro-2H-pyrazolo[3,4-b]pyridin-3-yl]-1-thiazol-2-ylbutan-1-ol] here?
Answer: 160.1 to 165.6 °C

Question: For `CCCC(O)(CCC)c1c2c(nn1C)N(c1ccc(Cl)cc1Cl)CCC2` [Example 5e, 4-[7-(2,4-Dichlorophenyl)-2-methyl-4,5,6,7-tetrahydro-2H-pyrazolo[3,4-b]pyridin-3-yl]heptan-4-ol], which melting point is on record?
Answer: 121.4 to 122.6 °C

Question: For `Cc1cc(C)c(N2CCCc3cn(C)nc32)c(Cl)c1` [Example 5m, 7-(2-Chloro-4,6-dimethylphenyl)-2-methyl-4,5,6,7-tetrahydro-2H-pyrazolo[3,4-b]pyridine], which melting point is on record?
Answer: 97 to 98 °C

Question: Which melting point does the source give for `Cc1cc(C)c(N2CCCc3c2nn(C)c3CN2CCc3ccccc3C2)c(C)c1` (as salt: hydrochloride) [Example 11, 2-[2-Methyl-7-(2,4,6-trimethyl-phenyl)-4,5,6,7-tetrahydro-2H-pyrazolo[3,4-b]pyridin-3-ylmethyl]-1,2,3,4-tetrahydroisoquinolinedihydrochloride] here?
Answer: 236.4 to 241 °C

Question: Which melting point does the source give for `CCCC(O)(CCC)c1c2c(nn1C)N(c1c(C)cc(C)cc1C)CCCC2` [Example 5d, 4-[2-Methyl-8-(2,4,6-trimethylphenyl)-2,4,5,6,7,8-hexahydro-1,2,8-triazaazulen-3-yl]heptan-4-ol] here?
Answer: 87 to 91.1 °C

Question: With `CCCC(O)(CCC)c1c2c(nn1C)N(c1c(C)cc(C)cc1C)CCC2` [Example 5b, 4-[2-Methyl-7-(2,4,6-trimethylphenyl)-4,5,6,7-tetrahydro-2H-pyrazolo[3,4-b]pyridin-3-yl]heptan-4-ol] as the molecule, how does the melting point read?
Answer: 126 to 127.9 °C

Question: Which melting point does the source give for `CCCC(O)(CCC)c1c2c(nn1C)N(c1c(C)cc(C)cc1Cl)CCC2` [Example 5a, 4-[7-(2-Chloro-4,6-dimethylphenyl)-2-methyl-4,5,6,7-tetrahydro-2H-pyrazolo[3,4-b]pyridin-3-yl]heptan-4-ol] here?
Answer: 129 to 130 °C

Question: Which melting point does the source give for `Cc1cc(C)c(N2CCCc3c2nn(C)c3NC(=O)OC(C)(C)C)c(Cl)c1` [Example 8c, [7-(2-Chloro-4,6-dimethylphenyl)-2-methyl-4,5,6,7-tetrahydro-2H-pyrazolo[3,4-b]pyridin-3-yl]carbamic acid tert-butyl ester] here?
Answer: 171.4 to 175.7 °C

Question: With `COCC(O)(COC)c1c2c(nn1C)N(c1c(C)cc(C)cc1C)CCC2` [Example 5f, 1,3-Dimethoxy-2-[2-methyl-7-(2,4,6-trimethylphenyl)-4,5,6,7-tetrahydro-2H-pyrazolo[3,4-b]pyridin-3-yl]propan-2-ol] as the molecule, how does the melting point read?
Answer: 120.3 to 121.8 °C

Question: With `CCCC(CCC)c1c2c(nn1C)N(c1c(C)cc(C)cc1C)CCCC2` [Example 7d, 2-Methyl-3-(1-propylbutyl)-8-(2,4,6-trimethylphenyl)-2,4,5,6,7,8-hexahydro-1,2,8-triazaazulene] as the molecule, how does the melting point read?
Answer: 96 to 98.1 °C

Question: Which melting point does the source give for `CC/C=C(\CCC)c1c2c(nn1C)N(c1c(C)cc(C)cc1Cl)CCC2` [Example 6a, 7-(2-Chloro-4,6-dimethylphenyl)-2-methyl-3-(1-propylbut-1-enyl)-4,5,6,7-tetrahydro-2H-pyrazolo[3,4-b]pyridine] here?
Answer: 86.7 to 88.2 °C

Question: Which melting point does the source give for `CC/C=C(\CCC)c1c2c(nn1C)N(c1c(C)cc(C)cc1C)CCC2` [Example 6b, 2-Methyl-3-(1-propylbut-1-enyl)-7-(2,4,6-trimethylphenyl)-4,5,6,7-tetrahydro-2H-pyrazolo[3,4-b]pyridine] here?
Answer: 101.6 to 102.6 °C

Question: Which melting point does the source give for `COCC(=O)Nc1c2c(nn1C)N(c1c(C)cc(C)cc1C)CCC2` [Example 10d, 2-Methoxy-N-[2-methyl-7-(2,4,6-trimethyl-phenyl)-4,5,6,7-tetrahydro-2H-pyrazolo[3,4-b]pyridin-3-yl]acetamide] here?
Answer: 133.8 to 135 °C

Question: For `Cc1cc(C)c(N2CCCc3c2nn(C)c3C(=O)O)c(C)c1` [Example 8b, 7-(2,4,6-Trimethylphenyl)-2-methyl-4,5,6,7-tetrahydro-2H-pyrazolo[3,4-b]pyridine-3-carboxylic acid], which melting point is on record?
Answer: 228.6 to 233.9 °C

Question: Which melting point does the source give for `CCCC(COC)Nc1c2c(nn1C)N(c1c(C)cc(C)cc1C)CCC2` (stereo not shown) [Example 9ak, (1-Methoxymethylbutyl)-[2-methyl-7-(2,4,6-trimethylphenyl)-4,5,6,7-tetrahydro-2H-pyrazolo[3,4-b]pyridin-3-yl]-amine] here?
Answer: 100.1 to 104.4 °C

Question: With `CCC(COC)Nc1c2c(nn1C)N(c1c(C)cc(C)cc1C)CCC2` (stereo not shown) [Example 9aj, (1-Methoxymethylpropyl)-[2-methyl-7-(2,4,6-trimethylphenyl)-4,5,6,7-tetrahydro-2H-pyrazolo[3,4-b]pyridin-3-yl]-amine] as the molecule, how does the melting point read?
Answer: 96.5 to 102.5 °C

Question: Which melting point does the source give for `CCOC(=O)Nc1c2c(nn1C)N(c1c(C)cc(C)cc1Cl)CCC2` [Example 8d, [7-(2-Chloro-4,6-dimethylphenyl)-2-methyl-4,5,6,7-tetrahydro-2H-pyrazolo[3,4-b]pyridin-3-yl]carbamic acid ethyl ester] here?
Answer: 204 to 207.8 °C

Question: For `CCC(O)c1c2c(nn1C)N(c1c(C)cc(C)cc1C)CCC2` (stereo not shown) [Example 5j, 1-[2-Methyl-7-(2,4,6-trimethylphenyl)-4,5,6,7-tetrahydro-2H-pyrazolo[3,4-b]pyridin-3-yl]propan-1-ol], which melting point is on record?
Answer: 179.4 to 180.9 °C

Question: For `COc1cccc(OC)c1-c1c2c(nn1C)N(c1c(C)cc(C)cc1C)CCC2` [Example 13b, 3-(2,6-Dimethoxyphenyl)-2-methyl-7-(2,4,6-trimethylphenyl)-4,5,6,7-tetrahydro-2H-pyrazolo[3,4-b]pyridine], which melting point is on record?
Answer: 169.9 to 172.8 °C

Question: For `CCCC(O)(c1nccn1CC)c1c2c(nn1C)N(c1c(C)cc(C)cc1C)CCC2` (stereo not shown) [Example 5k, 1-(1-Ethyl-1H-imidazol-2-yl)-1-[2-methyl-7-(2,4,6-trimethylphenyl)-4,5,6,7-tetrahydro-2H-pyrazolo[3,4-b]pyridin-3-yl]butan-1-ol], which melting point is on record?
Answer: 94.9 to 100.9 °C

Question: With `CCCN(CC1CC1)C(=O)c1c2c(nn1C)N(c1c(C)cc(C)cc1Cl)CCC2` [Example 10a, 7-(2-Chloro-4,6-dimethylphenyl)-2-methyl-4,5,6,7-tetrahydro-2H-pyrazolo[3,4-b]pyridine-3-carboxylic acidcyclopropylmethylpropylamide] as the molecule, how does the melting point read?
Answer: 120.6 to 122 °C
